# Measured values as given in article PMC11982470, “The 2-methylcitrate cycle and the glyoxylate shunt in Pseudomonas aeruginosa are linked through enzymatic redundancy” (The Journal of Biological Chemistry, 2025).
# T1: AceAPa (ICLPa) (Pseudomonas aeruginosa, UniProt Q9I0K4)
# T1 construct: gene PA2634; full-length, N-terminal His6 tag TEV-cleaved (pET-19m), expressed in E. coli
# T1 sequence (Q9I0K4 1-531): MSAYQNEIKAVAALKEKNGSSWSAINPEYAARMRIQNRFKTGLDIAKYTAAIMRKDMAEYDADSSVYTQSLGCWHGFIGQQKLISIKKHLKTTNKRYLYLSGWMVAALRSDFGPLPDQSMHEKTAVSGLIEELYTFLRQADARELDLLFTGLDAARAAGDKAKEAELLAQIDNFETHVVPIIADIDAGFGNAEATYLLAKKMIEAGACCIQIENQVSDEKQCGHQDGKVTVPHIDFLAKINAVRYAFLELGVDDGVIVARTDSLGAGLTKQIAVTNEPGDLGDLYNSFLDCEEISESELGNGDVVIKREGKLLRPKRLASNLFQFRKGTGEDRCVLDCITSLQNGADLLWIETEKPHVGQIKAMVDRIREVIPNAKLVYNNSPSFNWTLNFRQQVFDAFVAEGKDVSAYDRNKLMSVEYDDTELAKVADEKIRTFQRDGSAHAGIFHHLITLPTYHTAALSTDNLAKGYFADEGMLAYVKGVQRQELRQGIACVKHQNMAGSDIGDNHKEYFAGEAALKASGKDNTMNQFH
# T2: PrpBPa (Pseudomonas aeruginosa, UniProt Q9I5E2)
# T2 construct: gene prpB; full-length, N-terminal His6 tag TEV-cleaved (pET-19m), expressed in E. coli; homotetramer (dimer of dimers)
# T2 sequence (Q9I5E2 1-298): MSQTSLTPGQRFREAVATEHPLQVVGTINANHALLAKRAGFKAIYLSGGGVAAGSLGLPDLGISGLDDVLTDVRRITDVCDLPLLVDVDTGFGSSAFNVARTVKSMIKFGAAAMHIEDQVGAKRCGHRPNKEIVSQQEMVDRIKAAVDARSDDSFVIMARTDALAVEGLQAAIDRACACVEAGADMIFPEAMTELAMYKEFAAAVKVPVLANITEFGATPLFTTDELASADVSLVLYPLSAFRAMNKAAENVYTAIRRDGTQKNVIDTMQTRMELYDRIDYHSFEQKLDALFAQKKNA
# B1: 2-methylisocitrate lyase PrpB from Pseudomonas aeruginosa (PrpBPa) (enzyme, Pseudomonas aeruginosa PAO1)
# chain: MSQTSLTPGQRFREAVATEHPLQVVGTINANHALLAKRAGFKAIYLSGGGVAAGSLGLPDLGISGLDDVLTDVRRITDVCDLPLLVDVDTGFGSSAFNVARTVKSMIKFGAAAMHIEDQVGAKRCGHRPNKEIVSQQEMVDRIKAAVDARSDDSFVIMARTDALAVEGLQAAIDRACACVEAGADMIFPEAMTELAMYKEFAAAVKVPVLANITEFGATPLFTTDELASADVSLVLYPLSAFRAMNKAAENVYTAIRRDGTQKNVIDTMQTRMELYDRIDYHSFEQKLDALFAQKKNA
# notes: 2-methylisocitrate lyase PrpB, Pseudomonas aeruginosa PAO1, locus PA0796, PCR-amplified from PAO1 genomic DNA and cloned into pET-19m; 32.1 kDa; In the crystal structures the termini and the active site loop (residues 121-131) are not resolved; also called 2-MICL; PA0796; source: E. coli, purified (Ni-NTA; His6 tag removed with TEV protease); not shown: His6, N-terminal, cleaved
# Columns and labels:
# [1] = biological target: T1, AceAPa (ICLPa); assay: phenylhydrazine-based isocitrate lyase assay, […] nm; assay type: biochemical; settings: 4 mM DL-isocitric acid, 25 mM imidazole pH 7.0, 10 mM EDTA, 5 mM MgCl2
# [2] = biological target: T1, AceAPa (ICLPa); assay: LDH-coupled assay, NADH oxidation at […] nm; assay type: biochemical; settings: 50 mM Hepes pH 7.5, 2.5 mM MgCl2, 5 mM DTT, 37 °C; racemic threo substrate
# [3] = biological target: T2, PrpBPa; assay: LDH-coupled assay, inhibitor screen, relative activity; assay type: biochemical; settings: 1 mM compound, 5 min preincubation; pH 7.5, Mg2+, DTT, 37 °C
# [4] = substrate: CC(O)(C(=O)O)C(CC(=O)O)C(=O)O; assay: purified protein; assay type: biochemical, Pseudomonas aeruginosa; settings: 50 mM Hepes pH 7.5, 2.5 mM MgCl2, 5 mM DTT, 37 °C, DTT-pretreated enzyme, racemic threo substrate
# [5] = biological target: the molecule itself; assay: crystal structure; apo-PrpBPa (1.8 Å) and PrpBPa with Mg2+/pyruvate (1.76 Å, crystal soak); tetramer in the asymmetric unit; crystals from Tris-HCl pH 8.5, PEG 4000, LiSO4, 5 mM DTT, 19 °C
Molecule,relative activity at 1 mM [3],further results
O=C(O)CC(C(=O)O)C(O)C(=O)O (racemic) [DL isocitric acid],–,"phenylhydrazine-based isocitrate lyase assay, 324 nm [1]: could catalyze the cleavage of isocitrate into glyoxylate and succinate"
CC(O)(C(=O)O)C(CC(=O)O)C(=O)O (racemic) [threo-2-methylisocitrate],–,"LDH-coupled assay, NADH oxidation at 340 nm [2]: purified AceAPa demonstrated robust 2-MICL activity in vitro"
O=C(O)CC[N+](=O)[O-] [3-nitropropionic acid],3-nitropropionic acid was also a potent inhibitor of PrpBPa,–
O=C[C@H](O)COP(=O)(O)O [D-glyceraldehyde 3-phosphate],"α-ketoglutarate, cis-aconitic acid, and D-glyceraldehyde 3-phosphate were all potent inhibitors of PrpBPa",–
O=C(O)/C=C\C(=O)O [Maleic acid],Maleic acid was a nonphysiological inhibitor,–
O=C(O)/C=C(/CC(=O)O)C(=O)O [cis-aconitic acid],"α-ketoglutarate, cis-aconitic acid, and D-glyceraldehyde 3-phosphate were all potent inhibitors of PrpBPa",–
O=C(O)CCC(=O)C(=O)O [α-ketoglutarate],"α-ketoglutarate, cis-aconitic acid, and D-glyceraldehyde 3-phosphate were all potent inhibitors of PrpBPa",–
B1,–,Km [4]: 632 ± 158 µM; kcat [4]: 48.2 ± 4.2 s⁻¹; stoichiometry N [5]: 4
